From patent US8043631B2, “Tumor targeting drug-loaded particles” (priority 2005, dated 2011)

What was measured:
peritoneal cancer = conditions: intraperitoneal administration; cited from earlier work
[1] = test system: human head and neck FaDu xenografts; experiment: nano-sized latex bead delivery and dispersion in tumors after tumor priming; format: in vivo, Mice; conditions: paclitaxel 40 milligrams per kilogram intravenously, beads 48 hours later, tumors excised 24 hours after
Procedure: Mice were implanted subcutaneously with human head and neck FaDu xenografts, and divided in two groups. […] The control group (without tumor priming) only received the vehicle. Forty-eight hours later, animals received an intravenous injection of red fluorescent latex beads of 100, or 200 nm diameter. Tumors were excised 24 hours after the injection of the beads and examined. […] The percentage of area in tumors occupied by particles was calculated as (total number of deep-derived pixels) divided by (total number of pixels per microscopic field), which provided a measurement of the dispersion area. The average bead concentration in tumors was the average fluorescence intensity, which was calculated as (mean intensity of bead-derived pixels multiplied by total number of bead-derived pixels) divided by (total number of pixels per microscopic field). Eight tumors were used per data point.

[2] = test system: Human RT4 bladder transitional bladder cancer cells; experiment: cytotoxicity in RT4 cells, immediate and delayed effect, sulforhodamine B assay; format: cell-based; conditions: immediate effect
[3] = test system: stage T0 and T1 bladder tumors obtained from human patients; conditions: cited from earlier work
[4] = test system: Histocultures of head and neck FaDu xenograft tumors; experiment: Lipo-siRNA penetration into tumor histocultures with and without tumor priming; format: cell-based; conditions: paclitaxel 0.5 μM maintained for 48 hour, versus no priming
Procedure: Histocultures of head and neck FaDu xenograft tumors were maintained in vitro. Penetration of siRNA, formulated in cationic liposomes, was evaluated with and without tumor priming pretreatment. To facilitate detection, siRNA were labeled with green fluorescence (siGLO) and lipids were labeled with a red fluorescence marker. […] In the overlay picture, the red and green fluorescent images are combined. […] The bars indicate a length of 100 μm.

SMILES | extension of survival time in patients (peritoneal cancer) | delivery of latex beads to tumors after tumor priming [1] | maximal inhibition ([2]; 48 hours) | maximal inhibition ([2]; 96 hours) | IC50 [3] | penetration of siGLO-loaded liposomes after paclitaxel priming [4]
N.N.[Cl][Pt][Cl] [cisplatin] | about 20% | – | – | – | – | –
CC(=O)O[C@H]1C(=O)[C@@]2(C)[C@H]([C@H](OC(=O)c3ccccc3)[C@]3(O)C[C@H](OC(=O)[C@H](O)[C@@H](NC(=O)c4ccccc4)c4ccccc4)C(C)=C1C3(C)C)[C@]1(OC(C)=O)CO[C@@H]1C[C@@H]2O [paclitaxel] | – | enhanced the delivery of the 100- and 200-nm latex beads | 60% | 84% | 1.2 µM | at least five-fold deeper
